# Test results as given in article PMC8400955 (Pharmaceuticals, 2021).
# Assays:
# [1] = 7-day repeated-dose PK in rats; format: in vivo, Sprague Dawley rats; settings: rat, plasma
# Protocol: Groups of Sprague Dawley rats (n = 5/sex/group; n = 3/sex/TK group) were orally administered ZB716 (20% PG, 5% Solutol, and 75% of 40% HP-β-CD in DI water) at dose levels of 10, 100, and 400 mg/kg/day for 7 days. […] Systemic exposure, expressed as Cmax and AUClast values, increased with dose in a less than dose-proportional manner on days 1 and 7 (Figure 2). A slight gender difference was observed; generally, systemic exposures were higher in females than in males (male/female AUClast ratio = 0.442:0.883). Accumulation was observed only in male animals given 400 mg/kg/day.
# (§1) Four-to-six-week-old Sprague Dawley rats (Crl: CD (SD)) (SPF/VAF) were purchased from Beijing Vital River Laboratory Animal Technology, Co. Ltd.). Six-month-old beagle dogs were purchased from Beijing Marshall Biotechnology Co. Ltd. Animals were quarantined/acclimated for 2–6 weeks prior to dose initiation. Both Sprague Dawley rats and beagle dogs were given oral administration of ZB716 (20% PG, 5% Solutol, and 75% of 40% HP-β-CD in water) at different dose levels. After treatment with the test articles, whole blood was collected from each study animal by puncture of the tail vein (0.4 mL of whole blood from rats) and/or the peripheral vein (0.6 mL of whole blood from dogs) into tubes containing K2EDTA at each timepoint: pre-dose, and 0.5, 1, 2, 4, 8, and 24 h post-dose. The plasma samples were divided into 2 aliquots (approximately equal in volume) and stored frozen at −75 ± 15 °C within 2 h of the collection until analysis at Pharmaron, China.
# (§2) The stock solution of ZB716 (5.0 mg/mL) and ZB716-d6 (1 mg/mL) in ACN:DI Water = 1:1 was prepared and stored at −20 ± 5 °C. The desired serial concentrations of working reference analyte solutions were achieved by diluting a stock analyte solution with 50% acetonitrile (0.1% formic acid) in water solution. The bioanalytical LC–MS/MS method was validated for quantitative determination of ZB716 in Sprague Dawley rat plasma and beagle dog plasma, with acceptable selectivity, sensitivity, calibration curve, precision, and accuracy. This method is applicable for the determination of ZB716 in Sprague Dawley rat plasma and beagle dog plasma, with a lower limit of quantification of 20.0 ng/mL, and an upper limit of quantification of 10,000 ng/mL.
# (§3) Five microliters of diluted supernatant was injected into the LC–MS/MS system (Shimadzu LC30AD HPLC system with a SynergiTM 4 μm Fusion-RP 80 Å (50 × 2 mm) column using gradient elution and a Triple Quad 5500 mass spectrometer) for quantitative analysis. The mobile phases used were 0.1% formic acid in deionized water and 0.1% formic acid in acetonitrile. The pharmacokinetic parameters T1/2 (the biological half-life), Cmax (maximal concentration), Tmax (time at which Cmax is observed), and AUC (area under the plasma concentration–time curve) were calculated from the plasma concentration versus time data using WinNonlin (Phoenix^TM, version 8.1, Mountain View, CA, USA). All PK studies were conducted by Pharmaron in Beijing, China.
# [2] = 4-week repeat-dose toxicity/TK study in rats; format: in vivo, Sprague Dawley rats; settings: for AUC(0-t) / Cmax / Tmax: Sprague Dawley (Crl: CD (SD)), rat, plasma, po
# Protocol: The PK of ZB716 was investigated in a 4-week repeat-dose toxicity study in rats. Groups of Sprague Dawley rats (n = 10/sex/group; n = 3/sex/TK group) were orally administered ZB716 (5% EtOH, 15% PG, 5% Solutol, and 75% of 40% HP-β-CD in DI water) at dose levels of 25, 100, and 400 mg/kg/day for 4 weeks. The plasma concentration of ZB716 was measured at various times through to 24 h post-dose on days 1 and 28.
# as §1, §2, §3
# CYP2C19 = CYP2C19 (Homo sapiens, UniProt P33261); assay: CYP phenotyping, recombinant CYP2C19
# Protocol: Bactosomes prepared from E. coli that heterologously expressed individual human CYP isoforms together with human CYP reductase were obtained from CYPEX LTD (Scotland, UK), and stored at −80 °C prior to use. […] Timepoints were taken at 0, 5, 10, 15, 20, and 30 min. Substrate disappearance was used to calculate intrinsic clearance (Clint) and half-life (t1/2). All incubations were performed in triplicate. […] The chemical inhibitors for CYP1A2, 2A6, 2B6, 2C8, 2C9, 2C19, 2D6, and 3A4 were furafylline, tranylcypromine, ticlopidine, montelukast, sulfaphenazole, N-3-benzylnirvanol, quinidine, and ketoconazole, respectively. Timepoints were collected at 0, 15, 30, 45, and 60 min, and the remaining percentage of the parent drug at each timepoint was calculated (the calculation details are available in the Supplementary Materials). All incubations were performed in triplicate.
# 1.3.1 Intrinsic Clearance (Heterologously Expressed Human Cytochrome P450) All calculations were carried out using Microsoft Excel. The slope, k, was determined by linear regression of the natural logarithm of percent parent disappearance vs. incubation time curve. Peak areas for test article and internal standard were determined from extracted ion chromatograms. The peak area ratio was used to calculated for the results.
# The half-life value (t1/2 rCYPi) was determined from the slope value: […]
# [3] = female, Sprague Dawley (Crl: CD (SD)), po, 400 mg/kg/day, day 1, PO 400 mg/kg/day, F
# [4] = female, Sprague Dawley, po, 10 mg/kg/day, day 1, PO 10 mg/kg/day, F
# [5] = female, Sprague Dawley, po, 10 mg/kg/day, day 7, PO 10 mg/kg/day, F
# [6] = female, Sprague Dawley, po, 100 mg/kg/day, day 7, PO 100 mg/kg/day, F
# [7] = female, Sprague Dawley, po, 400 mg/kg/day, day 7, PO 400 mg/kg/day, F
# [8] = male, Sprague Dawley (Crl: CD (SD)), po, 10 mg/kg/day, day 7, PO 10 mg/kg/day, M
# [9] = male, Sprague Dawley (Crl: CD (SD)), po, 400 mg/kg/day, day 1, PO 400 mg/kg/day, M
# [10] = male, Sprague Dawley, po, 10 mg/kg/day, day 1, PO 10 mg/kg/day, M
# [11] = male, Sprague Dawley, po, 100 mg/kg/day, day 1, PO 100 mg/kg/day, M
# [12] = male, Sprague Dawley, po, 100 mg/kg/day, day 7, PO 100 mg/kg/day, M
# [13] = male, Sprague Dawley, po, 400 mg/kg/day, day 7, PO 400 mg/kg/day, M
# [14] = female, 25 mg/kg/day, day 1, PO 25 mg/kg/day, Female
# [15] = female, 25 mg/kg/day, day 28, PO 25 mg/kg/day, Female
# [16] = female, 100 mg/kg/day, day 1, PO 100 mg/kg/day, Female
# [17] = female, 100 mg/kg/day, day 28, PO 100 mg/kg/day, Female
# [18] = female, 400 mg/kg/day, day 1, PO 400 mg/kg/day, Female
# [19] = female, 400 mg/kg/day, day 28, PO 400 mg/kg/day, Female
# [20] = male, 25 mg/kg/day, day 1, PO 25 mg/kg/day, Male
# [21] = male, 25 mg/kg/day, day 28, PO 25 mg/kg/day, Male
# [22] = male, 100 mg/kg/day, day 1, PO 100 mg/kg/day, Male
# [23] = male, 100 mg/kg/day, day 28, PO 100 mg/kg/day, Male
# [24] = male, 400 mg/kg/day, day 1, PO 400 mg/kg/day, Male
# [25] = male, 400 mg/kg/day, day 28, PO 400 mg/kg/day, Male
# Chain of CYP2C19 (P33261 whole entry): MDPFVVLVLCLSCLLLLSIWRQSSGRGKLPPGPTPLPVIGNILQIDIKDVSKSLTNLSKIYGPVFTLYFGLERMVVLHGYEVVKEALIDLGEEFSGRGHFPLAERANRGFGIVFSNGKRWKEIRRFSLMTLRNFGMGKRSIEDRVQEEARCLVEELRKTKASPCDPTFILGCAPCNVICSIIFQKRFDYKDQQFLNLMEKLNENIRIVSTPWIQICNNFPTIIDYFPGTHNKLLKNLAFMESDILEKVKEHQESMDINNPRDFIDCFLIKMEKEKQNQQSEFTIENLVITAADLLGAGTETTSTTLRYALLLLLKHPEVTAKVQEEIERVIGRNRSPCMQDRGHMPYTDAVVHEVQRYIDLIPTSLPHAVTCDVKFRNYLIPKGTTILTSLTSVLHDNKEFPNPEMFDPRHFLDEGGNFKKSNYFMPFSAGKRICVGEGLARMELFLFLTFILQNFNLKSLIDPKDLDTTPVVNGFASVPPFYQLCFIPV
structure (smiles),measurement,setting,value
"C[C@]12CC[C@@H]3c4ccc(B(O)O)cc4C[C@@H](CCCCCCCCC[S+]([O-])CCCC(F)(F)C(F)(F)F)[C@H]3[C@@H]1CC[C@@H]2O (some centres unmarked) [ZB716, fulvestrant-3-boronic acid]",Tmax,"[1]; both sexes, Sprague Dawley, oral, 100 mg/kg/day, 10 and 100 mg/kg/day, day 1 and day 7, mostly, read-out: Tmax",0.5 to 1 h
same,Tmax,"[1]; both sexes, Sprague Dawley, oral, 400 mg/kg/day, day 1 and day 7, read-out: Tmax",≤ 8 h
same,AUC(0-t),"[1]; female, Sprague Dawley (Crl: CD (SD)), po, 100 mg/kg/day, day 1, PO 100 mg/kg/day, F",26700 ng·h/mL
same,AUC(0-t),[1]; [3],27900 ng·h/mL
same,Cmax,[1]; [3],2770 ng/mL
same,Tmax,"[1]; female, Sprague Dawley (Crl: CD (SD)), po, 400 mg/kg/day, day 1, PO 400 mg/kg/day, F, read-out: Tmax (median)",8 h
same,AUC(0-t),[1]; [4],1760 ng·h/mL
same,Cmax,[1]; [4],459 ng/mL
same,Tmax,"[1]; female, Sprague Dawley, po, 10 mg/kg/day, day 1, PO 10 mg/kg/day, F, read-out: Tmax (median)",0.5 h
same,AUC(0-t),[1]; [5],2820 ng·h/mL
same,Cmax,[1]; [5],710 ng/mL
same,Tmax,"[1]; female, Sprague Dawley, po, 10 mg/kg/day, day 7, PO 10 mg/kg/day, F, read-out: Tmax (median)",0.5 h
same,Cmax,"[1]; female, Sprague Dawley, po, 100 mg/kg/day, day 1, PO 100 mg/kg/day, F",3350 ng/mL
same,Tmax,"[1]; female, Sprague Dawley, po, 100 mg/kg/day, day 1, PO 100 mg/kg/day, F, read-out: Tmax (median)",1 h
same,AUC(0-t),[1]; [6],20700 ng·h/mL
same,Cmax,[1]; [6],2750 ng/mL
same,Tmax,"[1]; female, Sprague Dawley, po, 100 mg/kg/day, day 7, PO 100 mg/kg/day, F, read-out: Tmax (median)",0.5 h
same,AUC(0-t),[1]; [7],37100 ng·h/mL
same,Cmax,[1]; [7],3710 ng/mL
same,Tmax,"[1]; female, Sprague Dawley, po, 400 mg/kg/day, day 7, PO 400 mg/kg/day, F, read-out: Tmax (median)",0.5 h
same,AUC(0-t),[1]; [8],2260 ng·h/mL
same,Cmax,[1]; [8],322 ng/mL
same,Tmax,"[1]; male, Sprague Dawley (Crl: CD (SD)), po, 10 mg/kg/day, day 7, PO 10 mg/kg/day, M, read-out: Tmax (median)",1 h
same,AUC(0-t),[1]; [9],15200 ng·h/mL
same,Cmax,[1]; [9],1920 ng/mL
same,Tmax,"[1]; male, Sprague Dawley (Crl: CD (SD)), po, 400 mg/kg/day, day 1, PO 400 mg/kg/day, M, read-out: Tmax (median)",8 h
same,AUC(0-t),[1]; [10],1320 ng·h/mL
same,Cmax,[1]; [10],365 ng/mL
same,Tmax,"[1]; male, Sprague Dawley, po, 10 mg/kg/day, day 1, PO 10 mg/kg/day, M, read-out: Tmax (median)",0.5 h
same,AUC(0-t),[1]; [11],11800 ng·h/mL
same,Cmax,[1]; [11],1420 ng/mL
same,Tmax,"[1]; male, Sprague Dawley, po, 100 mg/kg/day, day 1, PO 100 mg/kg/day, M, read-out: Tmax (median)",0.5 h
same,AUC(0-t),[1]; [12],12900 ng·h/mL
same,Cmax,[1]; [12],1610 ng/mL
same,Tmax,"[1]; male, Sprague Dawley, po, 100 mg/kg/day, day 7, PO 100 mg/kg/day, M, read-out: Tmax (median)",0.5 h
same,AUC(0-t),[1]; [13],32700 ng·h/mL
same,Cmax,[1]; [13],2340 ng/mL
same,Tmax,"[1]; male, Sprague Dawley, po, 400 mg/kg/day, day 7, PO 400 mg/kg/day, M, read-out: Tmax (median)",8 h
same,test-article-related mortality or moribundity,"[2]; PO 25, 100, 400 mg/kg/day for 4 weeks",no test-article-related mortality or moribundity
same,AUC(0-t),[2]; [14],7700 ng·h/mL
same,Cmax,[2]; [14],1310 ng/mL
same,Tmax,[2]; [14],1 h
same,AUC(0-t),[2]; [15],8040 ng·h/mL
same,Cmax,[2]; [15],1770 ng/mL
same,Tmax,[2]; [15],1 h
same,AUC(0-t),[2]; [16],42200 ng·h/mL
same,Cmax,[2]; [16],3200 ng/mL
same,Tmax,[2]; [16],1 h
same,AUC(0-t),[2]; [17],24500 ng·h/mL
same,Cmax,[2]; [17],3850 ng/mL
same,Tmax,[2]; [17],1 h
same,AUC(0-t),[2]; [18],121000 ng·h/mL
same,Cmax,[2]; [18],11900 ng/mL
same,Tmax,[2]; [18],2 h
same,AUC(0-t),[2]; [19],51800 ng·h/mL
same,Cmax,[2]; [19],4850 ng/mL
same,Tmax,[2]; [19],2 h
same,AUC(0-t),[2]; [20],5400 ng·h/mL
same,Cmax,[2]; [20],1040 ng/mL
same,Tmax,[2]; [20],0.5 h
same,AUC(0-t),[2]; [21],4750 ng·h/mL
same,Cmax,[2]; [21],1310 ng/mL
same,Tmax,[2]; [21],0.5 h
same,AUC(0-t),[2]; [22],15700 ng·h/mL
same,Cmax,[2]; [22],1870 ng/mL
same,Tmax,[2]; [22],1 h
same,AUC(0-t),[2]; [23],20100 ng·h/mL
same,Cmax,[2]; [23],2840 ng/mL
same,Tmax,[2]; [23],0.5 h
same,AUC(0-t),[2]; [24],52400 ng·h/mL
same,Cmax,[2]; [24],3400 ng/mL
same,Tmax,[2]; [24],1 h
same,AUC(0-t),[2]; [25],50700 ng·h/mL
same,Cmax,[2]; [25],4060 ng/mL
same,Tmax,[2]; [25],2 h
same,half-life at 2 µM,CYP2C19; human,0.36 ± 0.0333 h
same,Clint,"CYP2C19; recombinant CYP2C19, 2 µM ZB716",0.646 ± 0.063 µL/min/pmol CYP
